Experimental data as given in patent publication EP3390415B1, “(R)- AND (S)-1-(3-(3-N,N-DIMETHYLAMINOCARBONYL)PHENOXYL-4-NITROPHENYL)-1-ETHYL-N,N'-BIS (ETHYLENE)PHOSPHORAMIDATE, COMPOSITIONS AND METHODS FOR THEIR USE AND PREPARATION” (OBI PHARMA, INC., priority 2015, dated 2017).
Like-named read-outs stand apart in the source and are kept apart here.

Assays:
K-562 = experiment: In vitro human tumor cell line cytotoxicity assay; type: cell-based; details: K562, read-out: RelIC50
[1] = Pharmacokinetics (TK) after 30-min IV infusion in monkeys; type: in vivo, Cynomolgus monkeys; details: 2 mg/kg 30-min IV infusion; for MRT inf / clearance / half-life / Vd / concentration at 0.25 hr / concentration at 0.5 hr / concentration at 0.75 hr / concentration at 1 hr / concentration at 2 hr: cynomolgus monkey, plasma; for half-life: read-out: Terminal t1/2 (converted); for Vd: read-out: Vss
Protocol: (§1) TH 3423 and TH 3424 were tested in no naive monkeys (1 male and one female for each compound at 2 mg/kg) with 30-min intravenous infusion, TK sampling: on Day 1 and Day 15: 0.25, 0.5, 0.75, 1 and 2 hr post infusion initiation. Serum chemistry and hematology: pre-dose (Day 1), day 5, day 8 (pre-dose), day 15 (pre-dose), day 22 and day 28. Clinical observation: Daily during the study, total 35 days. Food consumption: Daily during the study, total 35 days. Bodyweight measurement: Twice weekly for five weeks.

ECa-109 = experiment: In vitro human tumor cell line cytotoxicity assay; type: cell-based; details: read-out: RelIC50
Jurkat = experiment: In vitro human tumor cell line cytotoxicity assay; type: cell-based; details: read-out: RelIC50
P30/OHK = experiment: In vitro human tumor cell line cytotoxicity assay; type: cell-based; details: read-out: RelIC50
KYSE 270 = experiment: In vitro human tumor cell line cytotoxicity assay; type: cell-based; details: read-out: RelIC50
KYSE 70 = experiment: In vitro human tumor cell line cytotoxicity assay; type: cell-based; details: read-out: RelIC50
NOMO-1 = experiment: In vitro human tumor cell line cytotoxicity assay; type: cell-based; details: read-out: RelIC50
KYSE 180 = experiment: In vitro human tumor cell line cytotoxicity assay; type: cell-based; details: read-out: RelIC50
SNU-387 = experiment: In vitro human tumor cell line cytotoxicity assay; type: cell-based; details: for IC50: Homo sapiens
HCCC9810 = experiment: In vitro human tumor cell line cytotoxicity assay; type: cell-based; details: for IC50: Homo sapiens
Vcap = experiment: In vitro human tumor cell line cytotoxicity assay; type: cell-based; details: for IC50: Homo sapiens, VCaP
[2] = Acute toxicity study in monkeys, body weight; type: in vivo, Cynomolgus monkeys; design: unit not given here; details: 2 mg/kg IV infusion
Protocol: as §1

KG-1 = experiment: In vitro human tumor cell line cytotoxicity assay; type: cell-based; details: read-out: RelIC50
[3] = Body weight and toxicity in the orthotopic liver cancer mouse model; type: in vivo, athymic nude mice; details: intra-peritoneal, low or high dose (2.5 and 5 mg/kg)
TF-1 = experiment: In vitro human tumor cell line cytotoxicity assay; type: cell-based; details: read-out: RelIC50
GR-ST = experiment: In vitro human tumor cell line cytotoxicity assay; type: cell-based; details: read-out: RelIC50
TE-8 = experiment: In vitro human tumor cell line cytotoxicity assay; type: cell-based; details: read-out: RelIC50
HEL = experiment: In vitro human tumor cell line cytotoxicity assay; type: cell-based; details: read-out: RelIC50
HL-60 Clone = experiment: In vitro human tumor cell line cytotoxicity assay; type: cell-based; details: read-out: RelIC50
LIXC012 = experiment: In vitro human tumor cell line cytotoxicity assay; type: cell-based; details: for IC50: Homo sapiens
KYSE = experiment: In vitro human tumor cell line cytotoxicity assay; type: cell-based; details: read-out: RelIC50
[4] = both sexes, mean, read-out: Plasma concentration, Mean
[5] = female, read-out: Plasma concentration
[6] = male, read-out: Plasma concentration

Structure (SMILES): C[C@H](OP(=O)(N1CC1)N1CC1)c1ccc([N+](=O)[O-])c(Oc2cccc(C(=O)N(C)C)c2)c1 (single isomer, unassigned) [TH3424]
- IC50 (K-562): > 1000 nM
- AUCINF ([1]; Mean): 1461 hr^∗ng/mL
- AUClast ([1]; Mean): 1459 hr^∗ng/mL
- MRT inf ([1]; both sexes, Mean): 13.9 min
- clearance ([1]; both sexes, Mean): 23.7 mL/min/kg
- half-life ([1]; both sexes, Mean): 10.9 min
- Vd ([1]; both sexes, Mean): 0.325 L/kg
- concentration at 0.25 hr [1, 4]: 2160 ng/mL
- concentration at 0.5 hr [1, 4]: 2400 ng/mL
- concentration at 0.75 hr [1, 4]: 794 ng/mL
- concentration at 1 hr [1, 4]: 185 ng/mL
- concentration at 2 hr [1, 4]: 5.64 ng/mL
- concentration at 0.25 hr [1, 5]: 1850 ng/mL
- concentration at 0.5 hr [1, 5]: 2090 ng/mL
- concentration at 0.75 hr [1, 5]: 557 ng/mL
- concentration at 1 hr [1, 5]: 110 ng/mL
- concentration at 2 hr [1, 5]: 3.84 ng/mL
- MRT inf ([1]; female): 12.9 min
- clearance ([1]; female): 27.8 mL/min/kg
- half-life ([1]; female): 10.9 min
- Vd ([1]; female): 0.36 L/kg
- concentration at 0.25 hr [1, 6]: 2480 ng/mL
- concentration at 0.5 hr [1, 6]: 2720 ng/mL
- concentration at 0.75 hr [1, 6]: 1030 ng/mL
- concentration at 1 hr [1, 6]: 260 ng/mL
- concentration at 2 hr [1, 6]: 7.43 ng/mL
- MRT inf ([1]; male): 15 min
- clearance ([1]; male): 19.3 mL/min/kg
- half-life ([1]; male): 10.9 min
- Vd ([1]; male): 0.289 L/kg
- AUCINF ([1]; female): 1196 hr^∗ng/mL
- AUClast ([1]; female): 1195 hr^∗ng/mL
- AUCINF ([1]; male): 1726 hr^∗ng/mL
- AUClast ([1]; male): 1724 hr^∗ng/mL
- IC50 (ECa-109): 17 nM
- IC50 (Jurkat): 40 nM
- IC50 (P30/OHK): > 1000 nM
- IC50 (KYSE 270): 270 nM
- IC50 (KYSE 70): 33 nM
- IC50 (NOMO-1): 11 nM
- IC50 (KYSE 180): 450 nM
- Max Inhibition% (SNU-387): 99.3%
- Min Inhibition% (SNU-387): -14.8%
- IC50 (SNU-387; read-out: AbsIC50): 70.1 nM
- IC50 (SNU-387; read-out: RelIC50): 58.7 nM
- Max Inhibition% (HCCC9810): 95.4%
- Min Inhibition% (HCCC9810): 2.1%
- IC50 (HCCC9810; read-out: AbsIC50): 13.9 nM
- IC50 (HCCC9810; read-out: RelIC50): 13.4 nM
- IC50 (Vcap; read-out: AbsIC50): 14.8 nM
- IC50 (Vcap; read-out: RelIC50): 13.2 nM
- Max Inhibition% (Vcap; Vcap): 101.4%
- Min Inhibition% (Vcap; Vcap): -13.2%
- body weight ([2]; Mean, Day 1): 3.34
- body weight ([2]; Mean, Day 4): 3.26
- body weight ([2]; Mean, Day 8): 3.20
- body weight ([2]; Mean, Day 11): 3.06
- body weight ([2]; female, Day 1): 3.28
- body weight ([2]; female, Day 4): 3.22
- body weight ([2]; female, Day 8): 3.08
- body weight ([2]; female, Day 11): 2.94
- body weight ([2]; male, Day 1): 3.40
- body weight ([2]; male, Day 4): 3.30
- body weight ([2]; male, Day 8): 3.31
- body weight ([2]; male, Day 11): 3.17
- IC50 (KG-1): 15.3 nM
- toxicity to the experimental mice [3]: no obvious toxicity
- toxicity to the experimental mice ([3]; listed as TH2870-2): no obvious acute toxicity
- IC50 (TF-1): 28 nM
- IC50 (GR-ST): 99 nM
- IC50 (TE-8): 19 nM
- IC50 (HEL): 224 nM
- IC50 (HL-60 Clone): 52.6 nM
- Max Inhibition% (LIXC012): 82.8%
- Min Inhibition% (LIXC012): 4.1%
- IC50 (LIXC012; read-out: AbsIC50): 17.5 nM
- IC50 (LIXC012; read-out: RelIC50): 11.2 nM
- IC50 (KYSE): 11 nM
